Source: patent US12440498B2 (priority 2020, dated 2025)
Like-named read-outs stand apart in the source and are kept apart here.

Tests used:
[1] = human, in vivo; cited from earlier work
influenza = conditions: human, in vivo; cited from earlier work
[2] = tested on: recombinant A/H1N1 pdm09 wildtype (WT); format: cell-based
A/H1N1 virus = assay: microbe, parasite or virus in culture; format: cell-based, influenza A virus
[3] = tested on: A/H3N2 (A/Texas/50/2012 H3N2); format: cell-based, influenza A virus
[4] = in vivo; cited from earlier work
[5] = tested on: A/H1N1 pdm09 (A/Lyon/969/2009 H1N1); format: cell-based, influenza A virus
[6] = tested on: A/H1N1nLuc recombinant virus; assay: microbe, parasite or virus in culture; format: cell-based, influenza A virus
flu virus = conditions: human, in vivo, po; cited from earlier work

For `COC(=O)OCOc1c2n(ccc1=O)N([C@@H]1c3ccccc3SCc3c1ccc(F)c3F)[C@@H]1COCCN1C2=O` [baloxavir marboxil], the “patients with mainly digestive side effects (nausea, diarrhea, etc.)” value [1] is given as 4-5% and the “median time to cessation of viral shedding” value (influenza) is given as 48 h.

In the case of `O=C1c2c(O)c(=O)ccn2N([C@@H]2c3ccccc3SCc3c2ccc(F)c3F)[C@@H]2COCCN12` [baloxavir, baloxavir acid], the “reduction of production of A/H1N1 infectious particles” value [2] is reported as 3 log 10, the “increase of IC50 relative to the initial IC50” value (A/H1N1 virus) is reported as 35 times and the “reduction of production of A/H3N2 infectious particles” value [3] is reported as 3 log 10. The “half-life (hepatic elimination)” value [4] was 50 to 90 h, the “reduction of production of A/H1N1 infectious particles” value [5] was 4 log 10 and the EC50 ([6]; Influenza A virus, A549) was 0.000144 µM.

In the case of `COc1ccc([C@@H]2Sc3ccccc3N(CCN(C)C)C(=O)[C@@H]2OC(C)=O)cc1.Cl` [diltiazem], the IC50 (A/H1N1 virus; Influenza A virus, H1N1, MDCK, read-out: median inhibitory concentration (IC50)) is reported as 5 µM, the EC50 [6] is reported as 53.8 µM and the EC50 ([6]; Influenza A virus, A549) is reported as 50.1 µM.

Compound `NC(=O)c1nc(F)c[nH]c1=O` [favipiravir] has an EC50 ([6]; Influenza A virus, A549) of 2.49 µM.

For `CCOC(=O)C1=C[C@@H](OC(CC)CC)[C@H](NC(C)=O)[C@@H](N)C1` [oseltamivir], the “median time to cessation of viral shedding” value (influenza) is listed as 72 h.

For `NC(=O)c1ncn([C@@H]2O[C@H](CO)[C@@H](O)[C@H]2O)n1` [ribavirin], the “efficacy against flu virus” value (flu virus) is given as “not effective”.
